Measurements: a melting point compilation (Tetko et al.; mined from patent text by program, amines drawn as free bases though some values may be those of a salt)

Row | melting point [°C] | SMILES
1 | 142 to 145 | Cc1c(-c2ccc3c(c2)OCO3)[nH]c2ccc(OCc3ccccc3)cc12
2 | 125 to 128 | CC(=O)N[C@@H](C)c1ccc(C(C)=O)cc1
3 | 46 to 47 | COC(=O)c1ccc2c(C)csc2c1
4 | 200 | C#CCc1c(C)cc(=O)n(O)c1-c1ccccc1
5 | 141 to 142 | Cc1nnc(-c2cnc3occ(-c4ccccc4Cl)c3c2)o1
6 | 145 | CCOC(=O)CCNC(=S)Nc1ccc2cn[nH]c2c1
7 | 331 to 332 | CCOC(=O)c1cnn2c1nc(N)c1cnc3c(cnn3CC)c12
8 | 126 | C=CCn1[nH]c2cc(OC)ccc2c1=O
9 | 255 to 256 | COC(=O)Cc1cc(=O)[nH]c2cc(F)ccc12
10 | 148 to 151 | CN(Cc1ccc[nH]1)C1CCCN(C(=O)c2ccc(Nc3nccc(Nc4ccc(F)cc4)n3)cc2)C1 (stereo unspecified)
11 | 161 to 162 | CC(CCCO[Si](C)(C)C(C)(C)C)C1CCC2C3CC=C4C(C)(C)C(O[Si](C)(C)C(C)(C)C)CCC4(C)C3CCC12C (stereo unspecified)
12 | 264 to 268 | COc1cccc(Cc2ccc(-c3cnn4c(O)ncnc34)cc2)c1
13 | 78 to 79 | COC1OCC2C(=O)C3CCCCC3CC12 (stereo unspecified)
14 | 98 to 99 | O=C(F)c1c(Cl)ccc2cc(C(F)(F)F)cnc12
15 | 81 to 84 | COc1ccc(S(=O)(=O)Oc2cccc(OS(=O)(=O)c3ccc(OC)cc3)c2)cc1
16 | 201 | CNc1ncnc2c1ncn2/C=C/c1cc(NC(=O)c2cccc(C(F)(F)F)c2)ccc1C
17 | 154 to 156 | Cc1[nH]cnc1/C=C/C(=O)c1c(C)sc2ccccc12
18 | 151 to 154 | O=c1cc(CO)oc(-c2ccccc2)c1O
19 | 199 to 202 | CSCCCn1c(C)nc2c(N)nc3ccccc3c21
20 | 132 to 133 | O=C(O)CCN(CCCOc1ccc(C(=O)O)cc1)c1ccc(Cl)cc1
21 | 152 to 154 | CN(Nc1ccccc1COc1ccn(-c2ccc(Cl)cc2)n1)C(N)=O
22 | 72 to 73 | CCOC(=O)COc1ccc(N(C)Cc2ccc(-c3ccc(C(F)(F)F)cc3)nc2C)cc1CCCOC
23 | 224 to 225 | NS(=O)(=O)c1ccc(-c2oc3ccc(F)cc3c(=S)c2-c2ccc(F)cc2)cc1
24 | 71 to 72 | COC(=O)Nc1ccc(Br)c(C)c1

Row | melting point [°C] | SMILES
25 | 155 to 157 | O=C(O)Cc1ccc2c(c1)Cc1ccccc1CO2
26 | 179 to 181 | CC1CCC2(OC1)OC1CC3C4CCC5CC(O)CCC5(C)C4C=CC3(C)C1C2C (stereo unspecified)
27 | 132 to 135 | COC=C(C(=O)OC)c1c(OC)ncnc1Oc1cccc(COc2ccccc2C#N)c1
28 | 134 to 136 | O=c1c2ccccc2n(Cc2ccccc2)c2cc(Cl)ccc12
29 | 176 to 177 | CC(C)Cn1cnc2c(N)nc3ccc(CCCCc4ccccc4)cc3c21
30 | 120 to 122 | COc1ccc(C(=O)c2ccc3cc(OC)ccc3c2)c(F)c1
31 | 233 to 235 | CCOC(=O)CCn1c(=O)c(=O)[nH]c2cc(C(F)(F)F)c(-n3c(C)ccc3C)cc21
32 | 116 to 118 | COC(=O)c1ccc(OS(N)(=O)=O)cc1
33 | 148 to 152 | COC(=O)c1coc(CN2C(=O)C3(COc4cc5onc(C)c5cc43)c3ccccc32)n1 (stereo unspecified)
34 | 77 to 78 | CC(C)C[C@H](NC(=O)OCc1ccccc1)C(=O)N[C@@H](Cc1ccccc1)C(=O)CSCc1ccco1
35 | 198 to 199 | N#CCc1c(C(N)=O)ncn1C1CCCCO1 (stereo unspecified)
36 | 114 to 115 | COC(=O)C(=O)c1ccc(OCCOc2ccc(OC)cc2)cc1
37 | 137 to 138 | CC(O)(CC(=O)O)c1ccc(Oc2ccccc2)cc1 (stereo unspecified)
38 | 127 to 128 | COc1cc(-c2ccc(C=O)o2)ccc1Br
39 | 248 | CCOC(=O)c1[nH]cc2c1NC1=C(C(=O)CNC1)C2c1ccc(Sc2nc3ccc(OC)cc3[nH]2)o1 (stereo unspecified)
40 | 177 to 178 | COc1ccc(OC)c2nc(Cl)c(C=O)cc12
41 | 68 to 69 | CCCCCCCCCCNC(=O)N(O)CCCC(=O)OCC
42 | 170 to 171 | Cc1scc2c1N(C(=O)NCCN1CCC(CCCN3CCCCC3)CC1)c1ccccc1NC2=O
43 | 59 to 60 | CCCCOC(=O)Nc1cccc(C(C)=O)c1
44 | 88 to 92 | COC(=O)c1ccc(CN2C(=O)C3(COc4cc5c(cc43)OCCO5)c3ccccc32)o1 (stereo unspecified)
45 | 104 to 107 | CC(C)(C)CC(C)(C)c1ccc(N)c([N+](=O)[O-])c1
46 | 56 to 58 | O=c1c(Cc2ccccc2)coc2cc(OS(=O)(=O)C(F)(F)F)ccc12
47 | 76 to 78 | N#CCCCc1ccc2ccccc2c1O
48 | 155 to 157 | CN1CCN(c2ccc(Nc3ncc4ccc(Sc5ccccc5)n4n3)cc2)CC1

Row | melting point [°C] | SMILES
49 | 122 | O=C(O)CCCCCCCCCCCNC(=O)CCCCCCCCCCBr
50 | 145 to 150 | CCCCC(=O)Nc1ccc(-c2ccc(-c3ccccc3Cl)n2Cc2cccc(N)n2)cc1
51 | 94 to 95 | CCCCCCCCCCCCCCCc1ccc(CO)c(O)c1
52 | 240 to 242 | O=C(O)c1ccc(Cn2c(=O)sc3ccc(C#CCc4ccccc4)cc3c2=O)cc1
53 | 73 to 75 | CC(O)(c1nc2ccc([N+](=O)[O-])cc2[nH]1)C(F)(F)F (stereo unspecified)
54 | 211 to 212 | CC(C)S(=O)(=O)n1c(N)nc2ccc(C(=CC(N)=O)c3ccccc3)cc21
55 | 199 to 201 | COc1cc2c(Nc3ccc(Cl)cc3F)ncnc2cc1OCCCSc1nccn1C
56 | 298 to 300 | O=c1[nH]c2cc(Cl)ccc2c(O)c1-c1ccccc1[N+](=O)[O-]
57 | 190 to 192 | Cc1c(C)c2c(c(C)c1NC=O)CC(C)(CSc1nc3ccccc3s1)O2 (stereo unspecified)
58 | 133 to 134 | CN1CCN(Cc2ccc(NC(=O)c3ccc(Cl)c(C#Cc4ccc(NC5CC5)nn4)c3)cc2C(F)(F)F)CC1
59 | 201 to 203 | COc1cc(C(=O)N(C(C)C)C2CCCCC2)ccc1Cn1c(C)nc2ncccc21
60 | 84.5 | CN(N=Cc1ccccc1)C(=NC(=O)CN1C(=O)c2ccccc2C1=O)NCCCOc1cccc(CN2CCCCC2)c1
61 | 151 to 153 | CCOc1ccnc2c1c(C(C)=O)cn2S(=O)(=O)c1ccccc1
62 | 234 | Cc1ccc(-c2nc3c(C)cccc3c(=O)[nH]2)c(Cl)c1
63 | 130 | C#CCn1cc(Cl)cnc1=O
64 | 142 to 145 | O=C(Nc1ccc2c(c1)CCOC2)OCc1ccccc1
65 | 138 to 140 | CC(=O)Oc1c(Cl)ccc2c(-c3ccccc3)c(Sc3ccccc3)c(Sc3ccccc3)c(-c3ccccc3)c12
66 | 212 to 213 | COc1ccc(Nc2nc(-c3ccc(-c4ccccc4)cc3)cs2)nc1
67 | 205 to 208 | CCOC(=O)c1cc(C)nc2sc(C(N)=O)c(N)c12
68 | 85 | Cc1cc2cccc(OS(=O)(=O)C(F)(F)F)c2nc1-c1ccccc1
69 | 180 to 181 | O=C(NCC1(c2ccccc2)CCCCC1)Nc1ccc(Cl)c(Cl)c1
70 | 171 to 173 | Nn1c(C(F)(F)F)cc(=O)n(-c2c(F)cc(Cl)c3c2ONC3c2ccccc2)c1=O (stereo unspecified)
71 | 108 to 116 | O=C(NCCCc1ccncc1)N(CCC12CC3CC(CC(C3)C1)C2)C1CC1
72 | 184 to 186 | COc1cc(N2CCN([C@H]3CC[C@@H](c4cccs4)CC3)CC2)c2ncccc2c1

Row | melting point [°C] | SMILES
73 | 128 to 130 | COC(=O)c1sc2ccc(N)cc2c1N
74 | 162 to 164 | Fc1ccc(Cn2cnc3c(-c4ccco4)ncnc32)cc1
75 | 190 to 192 | Cc1ccc(-c2nnc(N3CCOCC3)nc2-c2ccc(C)cc2)cc1
76 | 108 | CC(C)C[C@H]1[C@@H](O)C(=O)N1C(=O)OC(C)(C)C
77 | 135 to 137 | CC(C)(C)CCC(=N)NC(=S)Nc1ccc(Cl)cc1
78 | 195 to 205 | CC(=O)c1c(C)[nH]c(CC(=O)O)c1C
79 | 106 to 108 | CCCc1nn2ncc(C(=O)OCC)c2n1Cc1ccc(-c2ccccc2-c2nnnn2C(c2ccccc2)(c2ccccc2)c2ccccc2)cc1
80 | 134 to 138 | Cc1c(C)c(N2CCN(c3ccc(CN(C)C)cc3)CC2)c(C)c2c1OC(C)(C)C2
81 | 133 to 135 | CCCC(C)CNc1cccc(-c2ccnc3c(C(=O)c4cccs4)cnn23)c1 (stereo unspecified)
82 | 83 to 83.8 | COc1ccc(CCNc2cc(-c3ccco3)nc(-c3nccs3)n2)cc1OC
83 | 123 to 125 | COc1ccc2c(c1)CCC(C1CCC(O)C1(C)CC(C)(C)O)C2 (stereo unspecified)
84 | 302 | COc1cccc2c(=O)c(C(N)=O)c(N)oc12
85 | 233 to 235 | CN1CC[C@@H](c2c(O)cc(O)c3c(=O)cc(-c4cc(Cl)ccc4Br)oc23)[C@@H]1CO
86 | 97 to 99 | O=C1c2cc([N+](=O)[O-])ccc2OCN1CCO[N+](=O)[O-]
87 | 245 to 246 | O=c1c2cc(F)c(Cl)nc2n(-c2ccc(C(F)(F)F)cc2)c(=O)n1OCc1ccccc1
88 | 188 to 190 | O=CNc1ccc(-c2ccncc2)cc1
89 | 161 to 162 | CCOC(=O)/C=C/c1ccc(C=Cc2nc(-c3ccccc3)oc2C)cc1
90 | 102 to 106 | CCCC[C@H](NC(=O)[C@H](CC(C)C)NC(=O)c1ccc(C(F)(F)F)cc1F)C(=O)CSCc1ccco1
91 | 110 | CCOC(=O)c1cc(O)c(C(=O)NCc2ccccc2)cc1O
92 | 186 to 187 | O=S(=O)(N[C@H](CO)C(CC(F)(F)F)CC(F)(F)F)c1ccc(Cl)cc1
93 | 108 to 110 | Cc1c(-c2ccccc2)sc2ccc(Cl)cc12
94 | 230 to 232 | Nc1nc2c(sc(=O)n2COCCO)c(=O)[nH]1

Row | SMILES | melting point [°C]
95 | CC(=O)OC1CCC2CCC3C(CCC4(C)C(O)C(N5CCCCC5)CC34)C2(C)C1 (stereo unspecified) | 162 to 166
96 | CCOC(=O)c1ncn2c1CN=C(c1ccccc1)c1cc(Br)ccc1-2 | 210 to 212
97 | CCCCN(CCCC)Cc1nc(-c2ncn3c2CN(C)C(=O)c2c(Cl)cccc2-3)no1 | 140 to 142
98 | CCCCCc1cc(O)c2c(c1)OC(C)(C)C1=C2CC(C)(C)S1 | 109 to 110
99 | Cc1cccc(Cn2c(NC3CCN(CCc4c(C)nc5ccccn5c4=O)CC3)nc3cccnc32)n1 | 233
100 | N#Cc1cc(F)c(-n2cnc(C(F)(F)F)cc2=O)cc1F | 95
101 | CN(C)CCc1c[nH]c2ccc(Br)cc12 | 82 to 85
